Experimental data from US12642857B2, “Degradation of AKT by conjugation of ATP-competitive AKT inhibitor GDC-0068 with E3 ligase ligands and methods of use” (DANA-FARBER CANCER INSTITUTE, INC., priority 2019, dated 2026).
pIC50: −log10 of the molar value.

Columns and labels:
AKT3 = target: T1, AKT3 (Homo sapiens, UniProt Q9Y243); assay: Z'-LYTE assay (AKT binding assay), AKT3; settings: 10-point dose response, Km ATP, read-out: Biochemical Binding AKT3
T1 construct: purchased Life Technologies (Invitrogen)
T1 sequence (Q9Y243 whole entry): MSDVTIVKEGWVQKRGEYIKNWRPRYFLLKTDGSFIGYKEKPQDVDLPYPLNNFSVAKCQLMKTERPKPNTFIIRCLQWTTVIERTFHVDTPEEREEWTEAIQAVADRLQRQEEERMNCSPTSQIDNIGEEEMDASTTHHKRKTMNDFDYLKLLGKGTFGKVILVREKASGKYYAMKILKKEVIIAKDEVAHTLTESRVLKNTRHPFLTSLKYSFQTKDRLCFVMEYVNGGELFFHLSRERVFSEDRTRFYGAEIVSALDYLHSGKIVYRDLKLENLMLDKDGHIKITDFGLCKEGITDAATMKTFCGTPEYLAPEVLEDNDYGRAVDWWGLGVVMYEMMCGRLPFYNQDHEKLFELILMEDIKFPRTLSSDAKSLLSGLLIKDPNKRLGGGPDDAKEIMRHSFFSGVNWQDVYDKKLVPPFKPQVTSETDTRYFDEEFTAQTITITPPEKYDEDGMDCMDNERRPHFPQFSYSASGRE
Procedure: (§1) Z′-LYTE assays (catalog number PV3193, Invitrogen™) were conducted for AKT1, AKT2, AKT3, PKG1, S6K1, PKN1, βMSK2, and Haspin at Life Technologies™ in a 10-point dose response using Km ATP concentrations. LanthaScreen™ assays were conducted for RET (V804M) in a 10-point dose response at Life Technologies™.

AKT1 = target: T2, AKT1 (Homo sapiens, UniProt P31749); assay: Z'-LYTE assay (AKT binding assay), AKT1; settings: 10-point dose response, Km ATP, read-out: Biochemical Binding AKT1
T2 construct: purchased Life Technologies (Invitrogen)
T2 sequence (P31749 whole entry): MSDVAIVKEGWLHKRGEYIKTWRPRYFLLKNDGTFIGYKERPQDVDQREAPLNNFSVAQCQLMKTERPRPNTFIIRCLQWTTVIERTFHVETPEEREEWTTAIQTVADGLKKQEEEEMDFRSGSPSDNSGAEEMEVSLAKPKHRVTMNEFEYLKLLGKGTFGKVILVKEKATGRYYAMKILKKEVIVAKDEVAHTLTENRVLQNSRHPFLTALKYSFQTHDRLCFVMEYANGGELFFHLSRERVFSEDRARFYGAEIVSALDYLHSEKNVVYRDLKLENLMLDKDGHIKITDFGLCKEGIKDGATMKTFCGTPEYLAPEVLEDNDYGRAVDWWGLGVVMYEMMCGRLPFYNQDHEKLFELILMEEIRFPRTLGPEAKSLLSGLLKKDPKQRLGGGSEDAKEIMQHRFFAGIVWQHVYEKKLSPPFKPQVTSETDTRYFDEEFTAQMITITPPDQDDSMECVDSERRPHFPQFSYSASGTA
Procedure: as §1

AKT2 = target: T3, AKT2 (Homo sapiens, UniProt P31751); assay: Z'-LYTE assay (AKT binding assay), AKT2; settings: 10-point dose response, Km ATP, read-out: Biochemical Binding AKT2
T3 construct: purchased Life Technologies (Invitrogen)
T3 sequence (P31751 whole entry): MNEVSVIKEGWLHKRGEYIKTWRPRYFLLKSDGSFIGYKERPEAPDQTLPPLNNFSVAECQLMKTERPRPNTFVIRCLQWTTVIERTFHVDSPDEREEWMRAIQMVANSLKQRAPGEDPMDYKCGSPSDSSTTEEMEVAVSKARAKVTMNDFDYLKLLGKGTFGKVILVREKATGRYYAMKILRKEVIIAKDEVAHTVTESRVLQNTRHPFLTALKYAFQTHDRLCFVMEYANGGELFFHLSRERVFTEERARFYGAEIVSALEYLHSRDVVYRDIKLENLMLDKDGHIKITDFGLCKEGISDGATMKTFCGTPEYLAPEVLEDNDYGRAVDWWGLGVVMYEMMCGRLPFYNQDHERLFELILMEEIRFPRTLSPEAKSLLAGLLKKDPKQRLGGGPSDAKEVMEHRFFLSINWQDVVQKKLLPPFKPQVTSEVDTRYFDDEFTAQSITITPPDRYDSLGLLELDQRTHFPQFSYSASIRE
Procedure: as §1

ZR-75-1 cells = assay: Growth inhibition rate (GR) assay in ZR-75-1 cells; type: cell-based; settings: 72-hour treatment (FIG. 6A)
Text: FIG. 6A-FIG. 6F are a set of graphs that show growth inhibition rate (GR) values across concentrations in ZR-75-1 (FIG. 6A), T47D (FIG. 6B), LNCaP (FIG. 6C), MCF-7 (FIG. 6D), MDA-MB-468 (FIG. 6E), and HCC1937 (FIG. 6F) cells after 72-hour treatment with GDC-0068 (blue), inventive bifunctional compound 10 (red), bifunctional compound 10-Me (negative control) (green), and lenalidomide (orange). Error bars represent the standard deviation of three technical replicates.

SMILES	pIC50 (AKT1)	other results
C[C@@H]1C[C@@H](O)c2ncnc(N3CCN(C(=O)[C@H](CNCCCNC(=O)COc4cccc5c4C(=O)N(C4CCC(=O)NC4=O)C5=O)c4ccc(Cl)cc4)CC3)c21 (stereo partly drawn) [Compound 2, N-(3-(((S)-2-(4-chlorophenyl)-3-(4-((5R,7R)-7-hydroxy-5-methyl-6,7-dihydro-5H-cyclopenta[d]pyrimidin-4-yl)piperazin-1-yl)-3-oxopropyl)-amino)propyl)-2-((2-(2,6-dioxopiperidin-3-yl)-1,3-dioxoisoindolin-4-yl)oxy) acetamide]	8.41	pIC50 (AKT3): 7.69; pIC50 (AKT2): 7.50
C[C@@H]1C[C@@H](O)c2ncnc(N3CCN(C(=O)[C@H](CNCCOCCOCCNC(=O)COc4cccc5c4C(=O)N(C4CCC(=O)NC4=O)C5=O)c4ccc(Cl)cc4)CC3)c21 (stereo partly drawn) [Compound 4, N-(2-(2-(2-(((S)-2-(4-chlorophenyl)-3-(4-((5R,7R)-7-hydroxy-5-methyl-6,7-dihydro-5H-cyclopenta[d]pyrimidin-4-yl)piperazin-1-yl)-3-oxopropyl)amino)ethoxy)ethoxy)ethyl)-2-((2-(2,6-dioxopiperidin-3-yl)-1,3-dioxoisoindolin-4-yl)oxy)acetamide]	8.16	–
C[C@@H]1C[C@@H](O)c2ncnc(N3CCN(C(=O)[C@H](CNCCOCCNC(=O)COc4cccc5c4C(=O)N(C4CCC(=O)NC4=O)C5=O)c4ccc(Cl)cc4)CC3)c21 (stereo partly drawn) [Compound 5, N-(2-(2-(((S)-2-(4-chlorophenyl)-3-(4-((5R,7R)-7-hydroxy-5-methyl-6,7-dihydro-5H-cyclopenta[d]pyrimidin-4-yl)piperazin-1-yl)-3-oxopropyl)amino)ethoxy)ethyl)-2-((2-(2,6-dioxopiperidin-3-yl)-1,3-dioxoisoindolin-4-yl)oxy)acetamide]	8.47	–
C[C@@H]1C[C@@H](O)c2ncnc(N3CCN(C(=O)[C@H](CNCCCCCCCCCCc4cccc5c4CN(C4CCC(=O)N(C)C4=O)C5=O)c4ccc(Cl)cc4)CC3)c21 (stereo partly drawn) [Compound 10-Me, 3-(4-(10-(((S)-2-(4-chlorophenyl)-3-(4-((5R,7R)-7-hydroxy-5-methyl-6,7-dihydro-5H-cyclopenta[d]pyrimidin-4-yl)piperazin-1-yl)-3-oxopropyl)amino)decyl)-1-oxoisoindolin-2-yl)-1-methylpiperidine-2,6-dione]	–	Anti-proliferative potency relative to compound 10 (ZR-75-1 cells): significantly less potent; GR50 (ZR-75-1 cells; Homo sapiens, read-out: GR50): 413 nM

More lines, main results first:

pIC50 (AKT1)	SMILES	other results
8.42	Cc1ncsc1-c1ccc([C@H](C)NC(=O)[C@@H]2C[C@@H](O)CN2C(=O)[C@@H](NC(=O)CCOCCOCCNC[C@@H](C(=O)N2CCN(c3ncnc4c3[C@H](C)C[C@H]4O)CC2)c2ccc(Cl)cc2)C(C)(C)C)cc1 [Compound 6, (2S,4R)-1-((2S,15S)-2-(tert-butyl)-15-(4-chlorophenyl)-16-(4-((5R,7R)-7-hydroxy-5-methyl-6,7-dihydro-5H-cyclopenta[d]pyrimidin-4-yl)piperazin-1-yl)-4,16-dioxo-7,10-dioxa-3,13-diazahexadecanoyl)-4-hydroxy-N—((S)-1-(4-(4-methylthiazol-5-yl)phenyl)ethyl)pyrrolidine-2-carboxamide]	–
8.61	C[C@@H]1C[C@@H](O)c2ncnc(N3CCN(C(=O)[C@H](CNCCCCCCCCC#Cc4cccc5c4CN(C4CCC(=O)NC4=O)C5=O)c4ccc(Cl)cc4)CC3)c21 (stereo partly drawn) [Compound 7, 3-(4-(10-(((S)-2-(4-chlorophenyl)-3-(4-((5R,7R)-7-hydroxy-5-methyl-6,7-dihydro-5H-cyclopenta[d]pyrimidin-4-yl)piperazin-1-yl)-3-oxopropyl)amino)dec-1-yn-1-yl)-1-oxoisoindolin-2-yl)piperidine-2,6-dione]	–
8.74	C[C@@H]1C[C@@H](O)c2ncnc(N3CCN(C(=O)[C@H](CNCCCCc4cccc5c4C(=O)N(C4CCC(=O)NC4=O)C5=O)c4ccc(Cl)cc4)CC3)c21 (stereo partly drawn) [Compound 9, 4-(4-(((S)-2-(4-chlorophenyl)-3-(4-((5R,7R)-7-hydroxy-5-methyl-6,7-dihydro-5H-cyclopenta[d]pyrimidin-4-yl)piperazin-1-yl)-3-oxopropyl)amino)butyl)-2-(2,6-dioxopiperidin-3-yl)isoindoline-1,3-dione]	–
